Like-named read-outs stand apart in the source and are kept apart here.
Legend:
KARN cells (Jurkat 2C4) = experiment: cells; type: cell-based; details: luciferase induction, 100% = 2 μM SAHA
How it was run: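 Luminescence (Steady-Glo, 10 min, room temperature) measured next day in KARN Jurkat 2C4 cells given compounds at up to 40 μM final with 0.4% DMSO. Percent activation normalised to DMSO (0%) and 2 μM SAHA (100%), fitted by 4-parameter curve.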

Recombinant human HDAC8 = molecular target: T1, Recombinant human HDAC8 (Homo sapiens, UniProt Q9BY41); experiment: Human HDAC enzyme inhibitor Fluor-de-Lys assay, HDAC8; type: biochemical; details: recombinant human HDAC8, Fluor-de-Lys assay
T1 construct: purchased Enzo Life Sciences BML-SE145-0100
T1 sequence (Q9BY41 1-377): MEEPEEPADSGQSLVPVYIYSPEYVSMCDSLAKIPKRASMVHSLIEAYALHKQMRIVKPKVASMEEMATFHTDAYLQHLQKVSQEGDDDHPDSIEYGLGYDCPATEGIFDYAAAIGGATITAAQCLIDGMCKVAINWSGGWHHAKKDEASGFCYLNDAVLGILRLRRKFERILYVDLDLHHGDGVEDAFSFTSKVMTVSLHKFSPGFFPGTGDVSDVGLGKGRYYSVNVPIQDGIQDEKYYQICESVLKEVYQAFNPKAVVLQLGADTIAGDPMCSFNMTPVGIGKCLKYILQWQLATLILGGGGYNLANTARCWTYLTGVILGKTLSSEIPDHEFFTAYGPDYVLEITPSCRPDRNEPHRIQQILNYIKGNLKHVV

[1] = Homo sapiens, Jurkat, read-out: Karn EC50 (nM) 0.1% NHS, 0.1% normal human serum
[2] = Homo sapiens, Jurkat, read-out: Karn EC50 (nM) 5% NHS, 5% normal human serum
[3] = read-out: Karn EC50 (nM) 0.1% NHS, 0.1% normal human serum
[4] = read-out: Karn EC50 (nM) 5% NHS, 5% normal human serum

Row | Structure (SMILES) | EC50 (KARN cells (Jurkat 2C4); [1]) | EC50 (KARN cells (Jurkat 2C4); [2]) | IC50 (Recombinant human HDAC8) | EC50 (KARN cells (Jurkat 2C4); [3]) | EC50 (KARN cells (Jurkat 2C4); [4])
1 | CCC(=O)CCCCC[C@H](NC(=O)[C@H]1CC12CCN(CC1CC1)CC2)c1ncc(-c2cc3ccc(=O)n(C)c3cc2F)o1 [Compound 400] | 577 nM | 557 nM | > 900 nM | – | –
2 | CCC(=O)CCCCC[C@H](NC(=O)C1=NOC2(CCN(S(C)(=O)=O)CC2)C1)c1nnc(-c2cc3ccccc3nc2OC)o1 [Compound 371] | 5000 nM | 6040 nM | > 45000 nM | – | –
3 | CCC(=O)CCCCC[C@H](NC(=O)[C@H]1CC[C@]2(CC1)OC(=O)c1ccncc12)c1ncc(-c2ccccc2)[nH]1 [Compound 376] | 1860 nM | 3680 nM | 4840 nM | – | –
4 | CCC(=O)CCCCC[C@H](NC(=O)C1=NOC2(CCN(C)CC2)C1)c1ncc(-c2cc3ccc(=O)n(C)c3cc2F)o1 [Compound 386] | 934 nM | 1060 nM | > 900 nM | – | –
5 | CCC(=O)CCCCC[C@H](NC(=O)C1=NOC2(CCN(S(C)(=O)=O)CC2)C1)c1ncc(-c2ccccc2)[nH]1 [Compound 383] | 2620 nM | 3260 nM | 8960 nM | – | –
6 | CCC(=O)CCCCCC(CC)(NC(=O)[C@H]1CC12CCN(CC1CC1)CC2)c1nc(-c2cc3ccc(C)nc3cc2OC)c[nH]1 (stereo partly drawn) [Compound 420, (1S)-6-(cyclopropylmethyl)-N-{3-[4-(7-methoxy-2-methylquinolin-6-yl)-1H-imidazol-2-yl]-9-oxoundecan-3-yl}-6-azaspiro[2.5]octane-1-carboxamide] | 11800 nM | > 40000 nM | > 900 nM | – | –
7 | CCN[C@@H](CCCCCC(=O)CC)c1ncc(-c2cc3ccc(C)nc3cc2OC)[nH]1 [Compound 403] | 5340 nM | 5600 nM | > 900 nM | – | –
8 | CCCC(=O)CCCCC[C@H](NC(=O)[C@H]1CC12CCN(CC1CC1)CC2)c1ncc(-c2cc3ccc(C)nc3cc2OC)[nH]1 [Compound 416] | 11 nM | 15 nM | > 900 nM | – | –
9 | CCC(=O)CCCCC[C@H](NC(=O)[C@H]1CC12CCN(C)CC2)c1ncc(-c2cc3ccc(N(C)C)nc3cc2OC)o1 [Compound 406] | 280 nM | 279 nM | 300 nM | – | –
10 | CCC(=O)CCCCC[C@H](NC(=O)C1=NOC2(CCN(C)CC2)C1)c1ncc(-c2cc3ccc(N(C)C)nc3cc2OC)o1 [Compound 397] | 279 nM | 327 nM | > 900 nM | – | –
11 | CCC(=O)CCCCC[C@H](NC(=O)C1=NOC2(CCN(C(C)=O)CC2)C1)c1ncc(-c2ccccc2)[nH]1 [Compound 380] | 1920 nM | 2410 nM | 6330 nM | – | –
12 | CCC(=O)CCCCC[C@H](NC(=O)[C@H]1CC12CCN(C)CC2)c1ncc(-c2cc3ocnc3cc2F)o1 [Compound 389] | 1120 nM | 1550 nM | > 900 nM | – | –
13 | CCC(=O)CCCCC[C@H](NC(=O)[C@H]1CC[C@]2(CC1)OC(=O)c1cccnc12)c1nnc(-c2cc3ccccc3nc2OC)o1 [Compound 368] | 1570 nM | 5240 nM | 21700 nM | – | –
14 | CCC(=O)CCCCC[C@H](NC(=O)[C@H]1CC12CCN(C)CC2)c1ncc(-c2cc3ccncc3cc2OC)o1 [Compound 405] | 65 nM | 57 nM | > 900 nM | – | –
15 | CCC(=O)CCCCC[C@H](NC(=O)[C@H]1CC[C@@]2(CC1)OC(=O)c1ncccc12)c1ncc(-c2ccccc2)[nH]1 [Compound 374] | 2580 nM | 5400 nM | 8180 nM | – | –
16 | CCC(=O)CCCCC[C@H](NC(=O)[C@H]1CC[C@@]2(CC1)OC(=O)c1cnccc12)c1ncc(-c2ccccc2)[nH]1 [Compound 373] | 1650 nM | 5340 nM | 6670 nM | – | –
17 | CCC(=O)CCCCC[C@H](NC(=O)[C@H]1CC[C@]2(CC1)OC(=O)c1cccnc12)c1ncc(-c2ccccc2)[nH]1 [Compound 378] | 1310 nM | 2990 nM | 2960 nM | – | –
18 | CCC(=O)CCCCC[C@H](NC(=O)C1=NOC2(CCN(C(C)C)CC2)C1)c1ncc(-c2ccccc2)[nH]1 [Compound 379] | 472 nM | 771 nM | 3290 nM | – | –
19 | CCC(=O)CCCCC[C@H](NC(=O)[C@H]1CC12CCN(CC1CC1)CC2)c1ncc(-c2ccc3nc(C)ccc3c2)[nH]1 [Compound 393] | 21 nM | 22 nM | > 900 nM | – | –
20 | CCC(=O)CCCCC[C@H](NC(=O)C1=NOC2(CCN(C)CC2)C1)c1nnc(-c2cc3ccccc3nc2OC)o1 [Compound 370] | 752 nM | 1430 nM | 8650 nM | – | –

Row | Structure (SMILES) | EC50 (KARN cells (Jurkat 2C4); [1]) | EC50 (KARN cells (Jurkat 2C4); [2]) | IC50 (Recombinant human HDAC8) | EC50 (KARN cells (Jurkat 2C4); [3]) | EC50 (KARN cells (Jurkat 2C4); [4])
21 | CCC(=O)CCCCC[C@H](NC(=O)C1=NOC2(CCN(C)CC2)C1)c1ncc(-c2ccccc2)[nH]1 [Compound 382] | 665 nM | 1070 nM | 6640 nM | – | –
22 | CCC(=O)CCCCCC(NC(=O)C1CCC2(CC1)OC(=O)c1ncccc12)c1nnc(-c2cc3ccccc3nc2OC)o1 (stereo not drawn) [Compound 365] | 1550 nM | 3830 nM | 28400 nM | – | –
23 | CCC(=O)CCCCC[C@H](NC(=O)C1=NOC2(CCN(C(=O)OC)CC2)C1)c1ncc(-c2ccccc2)[nH]1 [Compound 381] | 2740 nM | 6410 nM | 7470 nM | – | –
24 | CCC(=O)CCCCC[C@H](NCC1CN(C)C1)c1ncc(-c2cc3ccc(C)nc3cc2OC)o1 [Compound 401, (9S)-9-[5-(7-methoxy-2-methylquinolin-6-yl)-1,3-oxazol-2-yl]-9-{[(1-methylazetidin-3-yl)methyl]amino}nonan-3-one] | 1840 nM | 2210 nM | > 900 nM | – | –
25 | CCC(=O)CCCCC[C@H](NC(=O)C1CC12CCOCC2)c1ncc(-c2cc3ccc(C)nc3cc2OC)[nH]1 (single isomer, unassigned) [Compound 407] | 336 nM | 977 nM | > 900 nM | – | –
26 | CCC(=O)CCCCC[C@H](NC(=O)C1=NOC2(CCN(CC3CC3)CC2)C1)c1ncc(-c2cc3ccc(=O)n(C)c3cc2F)o1 [Compound 387] | 1540 nM | 1700 nM | > 900 nM | – | –
27 | CCC(=O)CCCCC[C@H](NC(=O)[C@H]1CC[C@@]2(CC1)OC(=O)c1cccnc12)c1ncc(-c2ccccc2)[nH]1 [Compound 375] | 1450 nM | 9330 nM | 8880 nM | – | –
28 | CCC(=O)CCCCC[C@H](NC(=O)[C@H]1CC[C@@]2(CC1)OC(=O)c1ccncc12)c1ncc(-c2ccccc2)[nH]1 [Compound 372] | 2650 nM | 5250 nM | 7730 nM | – | –
29 | CCC(=O)CCCCC[C@H](NC(=O)C1CC12CCOCC2)c1ncc(-c2cc3ccc(C)nc3cc2OC)o1 (single isomer, unassigned) [Compound 409] | 811 nM | 1860 nM | > 900 nM | – | –
30 | CCC(=O)CCCCC[C@H](NC(=O)C1=NOC2(CCN(C)CC2)C1)c1ncc(-c2ccc(Cl)cc2OC)o1 [Compound 390] | – | – | > 900 nM | 674 nM | 1680 nM
31 | CCC(=O)CCCCC[C@H](NC(=O)C1=NOC2(CCN(C)CC2)C1)c1ncc(-c2ccc(-c3ccccn3)cc2OC)o1 [Compound 391] | 460 nM | 541 nM | > 900 nM | – | –
32 | CCC(=O)CCCCC[C@H](NC(=O)C1CC12CCOCC2)c1ncc(-c2cc3ccc(C)nc3cc2OC)[nH]1 (single isomer, unassigned) [Compound 413] | – | – | > 900 nM | 348 nM | 1270 nM
33 | CCC(=O)CCCCC[C@H](NC(=O)C1CC12CCOCC2)c1ncc(-c2cc3ccc(C)nc3cc2OC)o1 (single isomer, unassigned) [Compound 410] | – | – | > 900 nM | 663 nM | 1390 nM
34 | CCC(=O)CCCCC[C@H](NC(=O)C1=NOC2(CCN(C(C)C)CC2)C1)c1nnc(-c2cc3ccccc3nc2OC)o1 [Compound 369] | 804 nM | 1680 nM | 19900 nM | – | –
35 | CCC(=O)CCCCC[C@H](NC(=O)[C@H]1CC12CCN(C)CC2)c1ncc(-c2cc3ocnc3cc2OC)o1 [Compound 408] | 250 nM | 593 nM | > 900 nM | – | –
36 | CCCC(=O)CCCCC[C@H](N)c1ncc(-c2cc3ccc(C)nc3cc2OC)[nH]1 [Compound A30] | 1490 nM | 5610 nM | 542 nM | – | –
37 | CCC(=O)CCCCC[C@H](NC(=O)C1=NOC2(CCN(C)CC2)C1)c1ncc(-c2cc3ccncc3cc2OC)o1 [Compound 415] | 105 nM | 118 nM | > 900 nM | – | –
38 | CCC(=O)CCCCC[C@H](NC(=O)[C@H]1CC[C@@]2(CC1)OC(=O)c1cccnc12)c1nnc(-c2cc3ccccc3nc2OC)o1 [Compound 366] | 1500 nM | 5360 nM | > 45000 nM | – | –
39 | CCC(=O)CCCCC[C@H](NCc1ccncc1)c1ncc(-c2cc3ccc(C)nc3cc2OC)[nH]1 [Compound 404] | > 40000 nM | > 40000 nM | > 900 nM | – | –
40 | CCC(=O)CCCCCC(N)(COC)c1ncc(-c2cc3ccc(C)nc3cc2OC)[nH]1 (stereo not drawn) [Compound 414, 9-amino-10-methoxy-9-[5-(7-methoxy-2-methylquinolin-6-yl)-1H-imidazol-2-yl]decan-3-one] | > 40000 nM | > 40000 nM | > 900 nM | – | –

From US12590099B2, “Inhibitors of histone deacetylase useful for the treatment or prevention of HIV infection” (Merck Sharp & Dohme LLC, priority 2018, dated 2026)
